Measured values reported in patent US11219212B2, “Herbicidal composition comprising cinmethylin and imazamox” (BASF Agro B.V., priority 2015, dated 2022).

Experiments:
Assay type in all cases: in vivo
Abutilon theophrasti = test: Greenhouse preemergence herbicidal activity; conditions: ABUTH, 20 DAT
Experimental: (§1) The test plants have been seeded, separately for each species, in plastic containers in sandy loamy soil containing 5% of organic matter.
(§2) The containers were irrigated gently to promote germination and growth and subsequently covered with transparent plastic hoods until the plants had rooted.
(§3) The plants have been cultivated due to their individual requirements at 10-25° C. and 20-35° C. The plants were irrigated due to their necessity.
(§4) The racemic mixture (±)-2-exo-(2-M ethylbenzyloxy)-1-methyl-4-isopropyl-7-oxabicyclo[2.2.1]heptane was used as herbicide A and formulated as emulsifiable concentrates with an active ingredient concentration of 50 g/l, 100 g/I or 750 g/I respectively.
(§5) Imazamox (herbicide B.1) was used as a water dispersible granule (70% WG).
(§6) In the following experiments, the herbicidal activity for the individual herbicidal compositions (solo and mixture applications) was assessed 20 days after treatment (DAT).
(§7) The evaluation for the damage on undesired weeds caused by the chemical compositions was carried out using a scale from 0 to 100%, compared to the untreated control plants. Here, 0 means no damage and 100 means complete destruction of the plants.
(§8) E=X+Y−(X·Y/100) where X=effect in percent using herbicide A at an application rate a; • Y=effect in percent using herbicide B at application rate b; • E=expected effect (in %) of herbicide A+herbicide B at application rates a+b.

Amaranthus retroflexus = test: Greenhouse preemergence herbicidal activity; conditions: AMARE
Experimental: as §1, §2, §3, §4, §5, §6, §7, §8

Anthemis arvensis [1] = test: Greenhouse preemergence herbicidal activity; conditions: ANTAR
Experimental: as §1, §2, §3, §4, §5, §6, §7, §8

Avena fatua [2] = test: Greenhouse preemergence herbicidal activity; conditions: AVEFA
Experimental: as §1, §2, §3, §4, §5, §6, §7, §8

Chenopodium album [3] = test: Greenhouse preemergence herbicidal activity; conditions: CHEAL, 20 DAT
Experimental: as §1, §2, §3, §4, §5, §6, §7, §8

Echinochloa crus-galli = test: Greenhouse preemergence herbicidal activity; conditions: ECHCG, 20 DAT
Experimental: as §1, §2, §3, §4, §5, §6, §7, §8

Galium aparine = test: Greenhouse preemergence herbicidal activity; conditions: GALAP, 20 DAT
Experimental: as §1, §2, §3, §4, §5, §6, §7, §8

Geranium dissectum = test: Greenhouse preemergence herbicidal activity; conditions: GERDI, 20 DAT
Experimental: as §1, §2, §3, §4, §5, §6, §7, §8

Lolium multiflorum = test: Greenhouse preemergence herbicidal activity; conditions: LOLMU
Experimental: as §1, §2, §3, §4, §5, §6, §7, §8

Polygonum convolvulus [4] = test: Greenhouse preemergence herbicidal activity; conditions: POLCO, 20 DAT
Experimental: as §1, §2, §3, §4, §5, §6, §7, §8

Setaria viridis [5] = test: Greenhouse preemergence herbicidal activity; conditions: SETVI
Experimental: as §1, §2, §3, §4, §5, §6, §7, §8

Sorghum halepense [6] = test: Greenhouse preemergence herbicidal activity; conditions: SORHA, 20 DAT
Experimental: as §1, §2, §3, §4, §5, §6, §7, §8

Stellaria media = test: Greenhouse preemergence herbicidal activity; conditions: STEME
Experimental: as §1, §2, §3, §4, §5, §6, §7, §8

Anthemis arvensis [7] = test: Greenhouse postemergence herbicidal activity; conditions: ANTAR, 20 DAT
Experimental: as §1
(§9) For the post emergence treatment, the plants were first grown to the 2 leaf station (GS 12). Here, the herbicidal compositions were suspended or emulsified in water as distribution medium and sprayed using finely distributing nozzles.
as §3, §4, §5, §6, §7, §8

Avena fatua [8] = test: Greenhouse postemergence herbicidal activity; conditions: AVEFA, 20 DAT
Experimental: as §1, §9, §3, §4, §5, §6, §7, §8

Chenopodium album [9] = test: Greenhouse postemergence herbicidal activity; conditions: CHEAL
Experimental: as §1, §9, §3, §4, §5, §6, §7, §8

Polygonum convolvulus [10] = test: Greenhouse postemergence herbicidal activity; conditions: POLCO
Experimental: as §1, §9, §3, §4, §5, §6, §7, §8

Setaria viridis [11] = test: Greenhouse postemergence herbicidal activity; conditions: SETVI
Experimental: as §1, §9, §3, §4, §5, §6, §7, §8

Sorghum halepense [12] = test: Greenhouse postemergence herbicidal activity; conditions: SORHA, 20 DAT
Experimental: as §1, §9, §3, §4, §5, §6, §7, §8

[13] = imazamox solo 4.4 g ai/ha, 20 DAT
[14] = imazamox solo 4.4 g ai/ha, 20 DAT (line of 25 + 4.4)
[15] = imazamox solo 8.8 g ai/ha, 20 DAT
[16] = imazamox solo 17.5 g ai/ha, 20 DAT
[17] = imazamox solo 17.5 g ai/ha, 20 DAT (line of 100 + 17.5)
[18] = imazamox solo 35 g ai/ha, 20 DAT
[19] = imazamox solo 35 g ai/ha, 20 DAT (line of 200 + 35)
[20] = imazamox solo 8.8 g ai/ha, 20 DAT (line of 50 + 8.8)
[21] = imazamox solo 4.4 g ai/ha, 20 DAT (line of 43.8 + 4.4)
[22] = herbicide A solo 25 g ai/ha, 20 DAT
[23] = herbicide A solo 37.5 g ai/ha, 20 DAT
[24] = herbicide A solo 75 g ai/ha, 20 DAT
[25] = herbicide A solo 100 g ai/ha, 20 DAT
[26] = herbicide A solo 150 g ai/ha, 20 DAT
[27] = herbicide A solo 200 g ai/ha, 20 DAT
[28] = herbicide A solo 300 g ai/ha, 20 DAT
[29] = herbicide A solo 50 g ai/ha, 20 DAT
[30] = herbicide A solo 62.5 g ai/ha, 20 DAT
[31] = herbicide A solo 250 g ai/ha, 20 DAT
[32] = herbicide A solo 125 g ai/ha, 20 DAT
[33] = herbicide A solo 43.8 g ai/ha, 20 DAT

COCc1cnc(C2=NC(C)(C(C)C)C(=O)N2)c(C(=O)O)c1 (racemic) [imazamox, 2-[(RS)-4-isopropyl-4-methyl-5-oxo-2-imidazolin-2-yl]-5-methoxymethylnicotinic acid]
herbicidal activity (Abutilon theophrasti; imazamox solo 17.5 g ai/ha): 70%
herbicidal activity (Abutilon theophrasti; imazamox solo 35 g ai/ha): 75%
herbicidal activity (Amaranthus retroflexus; [13]): 75%
herbicidal activity (Amaranthus retroflexus; [14]): 75%
herbicidal activity (Amaranthus retroflexus; [15]): 90%
herbicidal activity (Amaranthus retroflexus; [16]): 95%
herbicidal activity (Amaranthus retroflexus; [17]): 95%
herbicidal activity (Amaranthus retroflexus; [18]): 95%
herbicidal activity (Amaranthus retroflexus; [19]): 95%
herbicidal activity (Anthemis arvensis [1]; [13]): 0%
herbicidal activity (Anthemis arvensis [1]; [15]): 0%
herbicidal activity (Anthemis arvensis [1]; [16]): 20%
herbicidal activity (Anthemis arvensis [1]; [18]): 65%
herbicidal activity (Anthemis arvensis [1]; [19]): 65%
herbicidal activity (Avena fatua [2]; [15]): 20%
herbicidal activity (Avena fatua [2]; [20]): 20%
herbicidal activity (Avena fatua [2]; [16]): 65%
herbicidal activity (Avena fatua [2]; [17]): 65%
herbicidal activity (Chenopodium album [3]; imazamox solo 4.4 g ai/ha): 0%
herbicidal activity (Echinochloa crus-galli; imazamox solo 4.4 g ai/ha): 30%
herbicidal activity (Echinochloa crus-galli; imazamox solo 8.8 g ai/ha): 40%
herbicidal activity (Galium aparine; imazamox solo 4.4 g ai/ha): 0%
herbicidal activity (Galium aparine; imazamox solo 35 g ai/ha): 75%
herbicidal activity (Geranium dissectum; imazamox solo 8.8 g ai/ha): 0%
herbicidal activity (Lolium multiflorum; [13]): 0%
herbicidal activity (Lolium multiflorum; [14]): 0%
herbicidal activity (Lolium multiflorum; [15]): 70%
herbicidal activity (Polygonum convolvulus [4]; imazamox solo 8.8 g ai/ha): 25%
herbicidal activity (Setaria viridis [5]; [14]): 20%
herbicidal activity (Setaria viridis [5]; imazamox solo 4.4 g ai/ha, 20 DAT (line of 62.5 + 4.4)): 60%
herbicidal activity (Setaria viridis [5]; [15]): 65%
herbicidal activity (Sorghum halepense [6]; imazamox solo 4.4 g ai/ha): 10%
herbicidal activity (Stellaria media; [15]): 80%
herbicidal activity (Stellaria media; [20]): 80%
herbicidal activity (Stellaria media; [16]): 95%
herbicidal activity (Anthemis arvensis [7]; imazamox solo 35 g ai/ha): 98%
herbicidal activity (Avena fatua [8]; imazamox solo 4.4 g ai/ha): 70%
herbicidal activity (Chenopodium album [9]; [13]): 90%
herbicidal activity (Chenopodium album [9]; [21]): 90%
herbicidal activity (Chenopodium album [9]; [15]): 95%
herbicidal activity (Polygonum convolvulus [10]; [13]): 90%
herbicidal activity (Polygonum convolvulus [10]; [16]): 95%
herbicidal activity (Polygonum convolvulus [10]; imazamox solo 17.5 g ai/ha, 20 DAT (line of 175 + 17.5)): 95%
herbicidal activity (Polygonum convolvulus [10]; [18]): 95%
herbicidal activity (Setaria viridis [11]; [13]): 95%
herbicidal activity (Setaria viridis [11]; [21]): 95%
herbicidal activity (Sorghum halepense [12]; imazamox solo 4.4 g ai/ha): 90%
herbicidal activity (Sorghum halepense [12]; imazamox solo 17.5 g ai/ha): 95%
herbicidal activity (Sorghum halepense [12]; imazamox solo 35 g ai/ha): 98%

(±)-2-exo-(2-Methylbenzyloxy)-1-methyl-4-isopropyl-7-oxabicyclo[2.2.1]heptane [herbicide A]
herbicidal activity (Abutilon theophrasti; herbicide A solo 100 g ai/ha): 0%
herbicidal activity (Abutilon theophrasti; herbicide A solo 200 g ai/ha): 0%
herbicidal activity (Amaranthus retroflexus; [22]): 0%
herbicidal activity (Amaranthus retroflexus; [23]): 0%
herbicidal activity (Amaranthus retroflexus; [24]): 0%
herbicidal activity (Amaranthus retroflexus; [25]): 0%
herbicidal activity (Amaranthus retroflexus; [26]): 0%
herbicidal activity (Amaranthus retroflexus; [27]): 0%
herbicidal activity (Amaranthus retroflexus; [28]): 0%
herbicidal activity (Anthemis arvensis [1]; [29]): 0%
herbicidal activity (Anthemis arvensis [1]; [30]): 0%
herbicidal activity (Anthemis arvensis [1]; [26]): 0%
herbicidal activity (Anthemis arvensis [1]; [27]): 0%
herbicidal activity (Anthemis arvensis [1]; [28]): 0%
herbicidal activity (Avena fatua [2]; [29]): 0%
herbicidal activity (Avena fatua [2]; [24]): 20%
herbicidal activity (Avena fatua [2]; [25]): 20%
herbicidal activity (Avena fatua [2]; [31]): 65%
herbicidal activity (Chenopodium album [3]; herbicide A solo 37.5 g ai/ha): 20%
herbicidal activity (Echinochloa crus-galli; herbicide A solo 62.5 g ai/ha): 98%
herbicidal activity (Echinochloa crus-galli; herbicide A solo 125 g ai/ha): 98%
herbicidal activity (Galium aparine; herbicide A solo 25 g ai/ha): 0%
herbicidal activity (Galium aparine; herbicide A solo 200 g ai/ha): 30%
herbicidal activity (Geranium dissectum; herbicide A solo 125 g ai/ha): 70%
herbicidal activity (Lolium multiflorum; [22]): 50%
herbicidal activity (Lolium multiflorum; [23]): 60%
herbicidal activity (Lolium multiflorum; [32]): 90%
herbicidal activity (Polygonum convolvulus [4]; herbicide A solo 125 g ai/ha): 0%
herbicidal activity (Setaria viridis [5]; [22]): 75%
herbicidal activity (Setaria viridis [5]; [30]): 98%
herbicidal activity (Setaria viridis [5]; [24]): 98%
herbicidal activity (Sorghum halepense [6]; herbicide A solo 62.5 g ai/ha): 80%
herbicidal activity (Stellaria media; [29]): 20%
herbicidal activity (Stellaria media; [24]): 20%
herbicidal activity (Stellaria media; [26]): 30%
herbicidal activity (Anthemis arvensis [7]; herbicide A solo 500 g ai/ha): 65%
herbicidal activity (Avena fatua [8]; herbicide A solo 43.8 g ai/ha): 25%
herbicidal activity (Chenopodium album [9]; [33]): 60%
herbicidal activity (Chenopodium album [9]; [30]): 30%
herbicidal activity (Chenopodium album [9]; [32]): 50%
herbicidal activity (Polygonum convolvulus [10]; [30]): 25%
herbicidal activity (Polygonum convolvulus [10]; herbicide A solo 175 g ai/ha, 20 DAT): 50%
herbicidal activity (Polygonum convolvulus [10]; [31]): 40%
herbicidal activity (Polygonum convolvulus [10]; herbicide A solo 350 g ai/ha, 20 DAT): 50%
herbicidal activity (Setaria viridis [11]; [33]): 75%
herbicidal activity (Setaria viridis [11]; [30]): 85%
herbicidal activity (Sorghum halepense [12]; herbicide A solo 62.5 g ai/ha): 40%
herbicidal activity (Sorghum halepense [12]; herbicide A solo 175 g ai/ha): 50%
herbicidal activity (Sorghum halepense [12]; herbicide A solo 350 g ai/ha): 70%
